Laboratory results taken from doi:10.1101/2025.11.06.687025v1 (biorxiv, 2025).

Experiments:
[1] = target: T1, mouse serotonin 5-HT2C receptor (Mus musculus, UniProt P34968); experiment: Fura-2 Ca2+ imaging, fraction of responsive HEK/5-HT2C cells, Hill fit; format: cell-based
T1 construct: gene Htr2c; recombinant receptor stably expressed in HEK293 (HEK/5-HT2C cells)
T1 sequence (P34968 33-459): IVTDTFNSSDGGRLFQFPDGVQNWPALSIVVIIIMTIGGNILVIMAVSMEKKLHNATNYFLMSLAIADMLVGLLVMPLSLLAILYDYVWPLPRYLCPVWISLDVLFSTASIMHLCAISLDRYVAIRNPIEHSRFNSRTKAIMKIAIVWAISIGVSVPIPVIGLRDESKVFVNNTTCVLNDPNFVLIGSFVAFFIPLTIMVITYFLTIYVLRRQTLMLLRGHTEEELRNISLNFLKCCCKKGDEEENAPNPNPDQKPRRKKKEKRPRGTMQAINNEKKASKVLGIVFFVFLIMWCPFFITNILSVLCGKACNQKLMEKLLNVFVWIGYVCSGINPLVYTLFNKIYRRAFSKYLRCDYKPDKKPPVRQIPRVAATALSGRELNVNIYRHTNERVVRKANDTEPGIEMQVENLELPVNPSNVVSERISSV

[2] = target: T1, mouse serotonin 5-HT2C receptor; experiment: as above; format: cell-based; remark: listed apart in the source

Structure (SMILES): O=c1cc(N2CCOCC2)oc2c(-c3ccccc3)cccc12 [LY294002]
- IC50 [1]: 1200 nM

Structure (SMILES): O=c1cc(N2CCNCC2)oc2c(-c3ccccc3)cccc12 [LY303511]
- EC50 [2]: 2500 nM
